For orientation: IC50 means the concentration needed to halve the response being measured.

Positions of bridges follow the written chain, without caps; N, C: chain ends. Non-standard residues stand in square brackets, D forms with d. Residues, ends and D or L forms follow the SMILES beside them. Groups on a side chain read outwards from the residue. *: point of attachment. X17 = COCCOCCOCCOCCOCCOCCOCCOCCOCCOCCOCCOCCOCCOCCOCCOCCOCCOCCOCCOCCOCCOCCOCCOCCOCCOCCOCCOCCOCCOCCOCCOCCOCCOCCOCCOCCOCCOCCOCCOCCOCCOCCOCCOCCOCCOCCOCCOCCOCCC(=O)*; CH3O(CH2CH2O)11CH2CH2CO = COCCOCCOCCOCCOCCOCCOCCOCCOCCOCCOCCOCCC(=O)*; Phe(3,4,5-F3) = N[C@@H](Cc1cc(F)c(F)c(F)c1)C(=O)O; d(cisHyp) = O=C(O)[C@H]1C[C@@H](O)CN1; Stearoyl = CCCCCCCCCCCCCCCCCC(=O)*; Hyp = O=C(O)[C@@H]1C[C@@H](O)CN1; NMeF = CN[C@@H](Cc1ccccc1)C(=O)O; X30 = O=C1NC2CSC(CCCCC(=O)*)C2N1; NMeE = CN[C@@H](CCC(=O)O)C(=O)O; Undecanoyl = CCCCCCCCCCC(=O)*; NMeNle = CCCC[C@H](NC)C(=O)O; PEG4 = NCCOCCOCCOCCOCCC(=O)O; dPip = O=C(O)[C@H]1CCCCN1; NMeA = CN[C@@H](C)C(=O)O; Dab = NCC[C@H](N)C(=O)O; Sar = CNCC(=O)O

T1 sequence (Q9NZQ7 with tags, fused parts or gaps): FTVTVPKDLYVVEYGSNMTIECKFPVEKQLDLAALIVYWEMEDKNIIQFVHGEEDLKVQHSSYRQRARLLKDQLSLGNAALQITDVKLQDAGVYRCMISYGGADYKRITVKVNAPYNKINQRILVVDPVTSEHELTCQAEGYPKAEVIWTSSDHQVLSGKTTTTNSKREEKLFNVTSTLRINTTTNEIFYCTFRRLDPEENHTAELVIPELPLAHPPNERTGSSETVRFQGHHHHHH

The first assay has as its target T1, PD-L1 (Homo sapiens, UniProt Q9NZQ7).
T1 construct: hPDL1(19-239)-TVMV-His; made in house; host or cells: HEK293T
Put plainly: PD-1/PD-L1 Homogenous Time-Resolved Fluorescence (HTRF) binding assay (PD-1-Ig/PD-L1-His). Conditions: inhibition of PD-1-Ig binding to PD-L1-TVMV-His; value given as number; read-out: HTRF IC50. The text has this: The ability of the macrocyclic peptides of the present disclosure to bind to PD-L1 was investigated using a PD-1/PD-L1 Homogenous Time-Resolved Fluorescence (HTRF) binding assay.
Homogenous Time-Resolved Fluorescence (HTRF) Assays of Binding of Soluble PD-1 to Soluble PD-L1. Soluble PD-1 and soluble PD-L1 refers to proteins with carboxyl-end truncations that remove the transmembrane-spanning regions and are fused to heterologous sequences, specifically the Fc portion of the human immunoglobuling G sequence (Ig) or the hexahistidine epitope tag (His). All binding studies were performed in an HTRF assay buffer consisting of dPBS supplemented with 0.1% (w/v) bovine serum albumin and 0.05% (v/v) Tween-20. For the PD-1-Ig/PD-L1-His binding assay, inhibitors were pre-incubated with PD-L1-His (10 nM final) for 15 m in 4 μl of assay buffer, followed by addition of PD-1-Ig (20 nM final) in 1 μl of assay buffer and further incubation for 15m. PD-L1 fusion proteins from either human, cynomologous macaques, mouse, or other species were used. HTRF detection was achieved using europium crypate-labeled anti-Ig monoclonal antibody (1 nM final) and allophycocyanin (APC) labeled anti-His monoclonal antibody (20 nM final). Antibodies were diluted in HTRF detection buffer and 5 μl was dispensed on top of binding reaction. The reaction was allowed to equilibrate for 30 minutes and signal (665 nm/620 nm ratio) was obtained using an EnVision fluorometer. Additional binding assays were established between PD-1-Ig/PD-L2-His (20 and 5 nM, respectively), CD80-His/PD-L1-Ig (100 and 10 nM, respectively) and CD80-His/CTLA4-Ig (10 and 5 nM, respectively). Binding/competition studies between biotinylated Compound No. 71 and human PD-L1-His were performed as follows. Macrocyclic peptide inhibitors were pre-incubated with PD-L1-His (10 nM final) for 60 minutes in 4 μl of assay buffer followed by addition of biotinylated Compound No. 71 (0.5 nM final) in 1 μl of assay buffer. Binding was allowed to equilibrate for 30 minutes followed by addition of europium crypated labeled Streptavidin (2.5 pM final) and APC-labeled anti-His (20 nM final) in 5 μl of HTRF buffer. The reaction was allowed to equilibrate for 30m and signal (665 nm/620 nm ratio) was obtained using an EnVision fluorometer.
Recombinant Proteins. Carboxyl-truncated human PD-1 (amino acids 25-167) with a C-terminal human Ig epitope tag [hPD-1 (25-167)-3S-IG] and human PD-L1 (amino acids 18-239) with a C-terminal His epitope tag [hPD-L1(19-239)-tobacco vein mottling virus protease cleavage site (TVMV)-His] were expressed in HEK293T cells and purified sequentially by recombinant Protein A affinity chromatography and size exclusion chromatography. Human PD-L2-His (Sino Biologicals), CD80-His (Sino Biologicals), CTLA4-Ig (RnD Systems) were all obtained through commercial sources.
For orientation: Time-resolved FRET reads energy transfer from a long-lived donor to a nearby acceptor.
As to `CCCC[C@H]1C(=O)N2C[C@H](O)C[C@@H]2C(=O)N[C@@H](CC(=O)O)C(=O)N[C@@H](C(C)C)C(=O)N(C)[C@@H](Cc2ccccc2)C(=O)N[C@@H](Cc2ccc(O)cc2)C(=O)N2CCCC[C@@H]2C(=O)N[C@@H](Cc2c[nH]c3ccccc23)C(=O)N[C@@H](Cc2ccc(O)cc2)C(=O)N[C@@H](CC(C)C)C(=O)N[C@H](C(=O)NCC(=O)NCC(=O)NCC(=O)N[C@@H](CCCCNC(=O)CCOCCOCCOCCOCCOCCOCCOCCOCCOCCOCCOCCOCCOCCOCCOCCOCCOCCOCCOCCOCCOCCOCCOCCOCCOCCOCCOCCOCCOCCOCCOCCOCCOCCOCCOCCOCCOCCOCCOCCOCCOCCOCCOCCOCCOCCOCCOCCOCCOC)C(N)=O)CSCC(=O)N[C@@H](Cc2cc(F)c(F)c(F)c2)C(=O)N(C)[C@@H](Cc2ccccc2)C(=O)N1C` [Example 3625] ({CH2CO}-[Phe(3,4,5-F3)][NMeF][NMeNle][d(cisHyp)]DV[NMeF]Y[dPip]WYLCGGGK(X17)-NH2; thioether N-13), the IC50 came to 6.3 nM. In the case of `CCCCCCCCCCCCCCCCCC(=O)NCCCC[C@H](NC(=O)[C@@H]1CSCC(=O)N[C@@H](Cc2ccc(O)cc2)C(=O)N(C)[C@@H](C)C(=O)N[C@@H](CC(N)=O)C(=O)N2CCC[C@H]2C(=O)N[C@@H](CCN)C(=O)N[C@@H](CC(C)C)C(=O)N2C[C@H](O)C[C@H]2C(=O)N[C@@H](Cc2c[nH]c3ccccc23)C(=O)N[C@@H](CO)C(=O)N[C@@H](Cc2c[nH]c3ccccc23)C(=O)N(C)[C@@H](CCCC)C(=O)N(C)[C@@H](CCCC)C(=O)N[C@@H](CCCNC(=N)N)C(=O)N1)C(N)=O` [Example 11001] ({CH2CO}-Y[NMeA]NP[Dab]L[Hyp]WSW[NMeNle][NMeNle]RCK(Stearoyl)-NH2; thioether N-14), the IC50 worked out at 952 nM. Still for that read-out and setting: under `CCCCCCCCCCC(=O)NCCCC[C@H](NC(=O)[C@H](CC(=O)O)NC(=O)CNC(=O)CNC(=O)CNC(=O)[C@@H]1CSCC(=O)N[C@@H](Cc2ccc(O)cc2)C(=O)N(C)[C@@H](C)C(=O)N[C@@H](CC(N)=O)C(=O)N2CCC[C@H]2C(=O)N[C@@H](CCN)C(=O)N[C@@H](CC(C)C)C(=O)N2C[C@H](O)C[C@H]2C(=O)N[C@@H](Cc2c[nH]c3ccccc23)C(=O)N[C@@H](CO)C(=O)N[C@@H](Cc2c[nH]c3ccccc23)C(=O)N(C)[C@@H](CCCC)C(=O)N(C)[C@@H](CCCC)C(=O)N[C@@H](CCCNC(=N)N)C(=O)N1)C(N)=O` [Example 11003] ({CH2CO}-Y[NMeA]NP[Dab]L[Hyp]WSW[NMeNle][NMeNle]RCGGGDK(Undecanoyl)-NH2; thioether N-14) stands 54.6 nM.

Still in this assay, the particulars now being: inhibition of PD-1-Ig binding to PD-L1-TVMV-His; value given as range class; read-out: HTRF IC50.
For the compound `CCCC[C@H]1C(=O)N2C[C@H](O)C[C@@H]2C(=O)N[C@@H](CC(=O)O)C(=O)N[C@@H](C(C)C)C(=O)N(C)[C@@H](Cc2ccccc2)C(=O)N[C@@H](Cc2ccc(O)cc2)C(=O)N(C)[C@@H](CCC(=O)O)C(=O)N[C@@H](Cc2c[nH]c3ccccc23)C(=O)N[C@@H](Cc2ccc(O)cc2)C(=O)N[C@@H](CC(C)C)C(=O)N[C@H](C(=O)NCC(=O)NCC(=O)NCC(=O)N[C@@H](CCCCN)C(N)=O)CSCC(=O)N[C@@H](Cc2cc(F)c(F)c(F)c2)C(=O)N(C)[C@@H](Cc2ccccc2)C(=O)N1C` [Example 3214] ({CH2CO}-[Phe(3,4,5-F3)][NMeF][NMeNle][d(cisHyp)]DV[NMeF]Y[NMeE]WYLCGGGK-NH2; thioether N-13), the half-inhibitory concentration (IC50) fell in the range of 0.3 to 9.9 nM.

Consider `CCCC[C@H]1C(=O)N(C)CC(=O)N[C@@H](CC(=O)O)C(=O)N[C@@H](C(C)C)C(=O)N(C)[C@@H](Cc2ccccc2)C(=O)N[C@@H](Cc2ccc(O)cc2)C(=O)N(C)[C@@H](CCC(=O)O)C(=O)N[C@@H](Cc2c[nH]c3ccccc23)C(=O)N[C@@H](Cc2ccc(O)cc2)C(=O)N[C@@H](CC(C)C)C(=O)N[C@H](C(=O)NCC(=O)NCC(=O)NCC(=O)N[C@@H](CCCCN)C(N)=O)CSCC(=O)N[C@@H](Cc2ccccc2)C(=O)N(C)[C@@H](Cc2ccccc2)C(=O)N1C` [Example 3619] ({CH2CO}-F[NMeF][NMeNle][Sar]DV[NMeF]Y[NMeE]WYLCGGGK-NH2; thioether N-13), for which the IC50 was in the range of 0.3 to 9.9 nM. For the compound `CCCC[C@H]1C(=O)N(C)CC(=O)N[C@@H](CC(=O)O)C(=O)N[C@@H](C(C)C)C(=O)N(C)[C@@H](Cc2ccccc2)C(=O)N[C@@H](Cc2ccc(O)cc2)C(=O)N(C)[C@@H](CCC(=O)O)C(=O)N[C@@H](Cc2c[nH]c3ccccc23)C(=O)N[C@@H](Cc2ccc(O)cc2)C(=O)N[C@@H](CC(C)C)C(=O)N[C@H](C(=O)NCC(=O)NCC(=O)NCC(=O)N[C@@H](CCCCNC(=O)CCOCCOCCOCCOCCOCCOCCOCCOCCOCCOCCOCCOC)C(N)=O)CSCC(=O)N[C@@H](Cc2ccccc2)C(=O)N(C)[C@@H](Cc2ccccc2)C(=O)N1C` [Example 3621] ({CH2CO}-F[NMeF][NMeNle][Sar]DV[NMeF]Y[NMeE]WYLCGGGK(CH3O(CH2CH2O)11CH2CH2CO)-NH2; thioether N-13), the IC50 was 10 to 99 nM. On to `CCCC[C@H]1C(=O)N2C[C@H](O)C[C@@H]2C(=O)N[C@@H](CC(=O)O)C(=O)N[C@@H](C(C)C)C(=O)N(C)[C@@H](Cc2ccccc2)C(=O)N[C@@H](Cc2ccc(O)cc2)C(=O)N2CCCC[C@@H]2C(=O)N[C@@H](Cc2c[nH]c3ccccc23)C(=O)N[C@@H](Cc2ccc(O)cc2)C(=O)N[C@@H](CC(C)C)C(=O)N[C@H](C(=O)NCC(=O)NCC(=O)NCC(=O)N[C@@H](CCCCN)C(N)=O)CSCC(=O)N[C@@H](Cc2cc(F)c(F)c(F)c2)C(=O)N(C)[C@@H](Cc2ccccc2)C(=O)N1C` [Example 3623] ({CH2CO}-[Phe(3,4,5-F3)][NMeF][NMeNle][d(cisHyp)]DV[NMeF]Y[dPip]WYLCGGGK-NH2; thioether N-13), for which the IC50 lay in the range of 0.3 to 9.9 nM.

With `CCCC[C@H]1C(=O)N2C[C@H](O)C[C@@H]2C(=O)N[C@@H](CC(=O)O)C(=O)N[C@@H](C(C)C)C(=O)N(C)[C@@H](Cc2ccccc2)C(=O)N[C@@H](Cc2ccc(O)cc2)C(=O)N2CCCC[C@@H]2C(=O)N[C@@H](Cc2c[nH]c3ccccc23)C(=O)N[C@@H](Cc2ccc(O)cc2)C(=O)N[C@@H](CC(C)C)C(=O)N[C@H](C(=O)NCC(=O)NCC(=O)NCC(=O)N[C@@H](CCCCNC(=O)CCOCCOCCOCCOCCOCCOCCOCCOCCOCCOCCOCCOC)C(N)=O)CSCC(=O)N[C@@H](Cc2cc(F)c(F)c(F)c2)C(=O)N(C)[C@@H](Cc2ccccc2)C(=O)N1C` [Example 3624] ({CH2CO}-[Phe(3,4,5-F3)][NMeF][NMeNle][d(cisHyp)]DV[NMeF]Y[dPip]WYLCGGGK(CH3O(CH2CH2O)11CH2CH2CO)-NH2; thioether N-13), the IC50 was 0.3 to 9.9 nM. Same read-out and setting: under `CCCC[C@H]1C(=O)N2C[C@H](O)C[C@@H]2C(=O)N[C@@H](CC(=O)O)C(=O)N[C@@H](C(C)C)C(=O)N(C)[C@@H](Cc2ccccc2)C(=O)N[C@@H](Cc2ccc(O)cc2)C(=O)N2CCCC[C@@H]2C(=O)N[C@@H](Cc2c[nH]c3ccccc23)C(=O)N[C@@H](Cc2ccc(O)cc2)C(=O)N[C@@H](CC(C)C)C(=O)N[C@H](C(=O)NCC(=O)NCC(=O)NCC(=O)N[C@@H](CCCCNC(=O)CCOCCOCCOCCOCCNC(=O)CCCCC2SCC3NC(=O)NC32)C(N)=O)CSCC(=O)N[C@@H](Cc2cc(F)c(F)c(F)c2)C(=O)N(C)[C@@H](Cc2ccccc2)C(=O)N1C` (stereo partly shown) [Example 3626] ({CH2CO}-[Phe(3,4,5-F3)][NMeF][NMeNle][d(cisHyp)]DV[NMeF]Y[dPip]WYLCGGGK([PEG4-X30])-NH2; thioether N-13) stands 0.3 to 9.9 nM. Turning to `CCCCCCCCCCC(=O)NCCCC[C@H](NC(=O)[C@H](CC(=O)O)NC(=O)CNC(=O)[C@@H]1CSCC(=O)N[C@@H](Cc2ccc(O)cc2)C(=O)N(C)[C@@H](C)C(=O)N[C@@H](CC(N)=O)C(=O)N2CCC[C@H]2C(=O)N[C@@H](CCN)C(=O)N[C@@H](CC(C)C)C(=O)N2C[C@H](O)C[C@H]2C(=O)N[C@@H](Cc2c[nH]c3ccccc23)C(=O)N[C@@H](CO)C(=O)N[C@@H](Cc2c[nH]c3ccccc23)C(=O)N(C)[C@@H](CCCC)C(=O)N(C)[C@@H](CCCC)C(=O)N[C@@H](CCCNC(=N)N)C(=O)N1)C(N)=O` [Example 11005] ({CH2CO}-Y[NMeA]NP[Dab]L[Hyp]WSW[NMeNle][NMeNle]RCGDK(Undecanoyl)-NH2; thioether N-14), the IC50 was 10 to 99 nM.

The values are drawn from patent US10633419B2, “Immunomodulators” (BRISTOL-MYERS SQUIBB COMPANY, priority 2014, dated 2020).
